This is an account of results in US20210393664A1, “THERAPEUTIC METHODS AND COMPOSITIONS FOR TREATING ACUTE MYELOID LEUKEMIA USING DEVIMISTAT” (Rafael Pharmaceuticals, Inc., priority 2018, published 2021).

On the set-up of series [1]: species or system animal. The settings on record: in vivo, iv. As to the method: (§1) Diluted CPI-613® (devimistat) drug product must be administered over 2 hours, concurrently with D5W at the rate of 125 mL/hour, by IV infusion via a central line catheter, using an infusion pump, that is free flowing and free of air in the dead space of the IV catheter. This is done to minimize vascular irritation, inflammation and acute toxicity of CPI-613® (devimistat) (Study NCL-049). […] To avoid local reactions at and around the site of administration, CPI-613® (devimistat) must be administered via a central IV catheter.

Series [2] in a line: Leaching of DEHP from IV infusion sets and IV bags. The settings on record: DEHP-containing IV infusion sets and IV bags. In kind it is physicochemical.
Series [3] in a line: Animal study NCL-049: extra air in the dead space of IV catheters during administration. Format: in vivo. The conditions noted are these: accidental co-administration of extra air in the dead space of IV catheters; animal studies (Study NCL-049). Here is the method:
as §1

Series [4] can be described thus: Adverse events by relatedness to devimistat. In kind it is in vivo, human. The settings on record: patients. An excerpt: An AE can therefore be any unfavorable sign (including an abnormal laboratory finding), symptom, or disease temporarily associated with the study treatment, whether or not related to the investigational product.
Probably Related—A clinical event follows a reasonable temporal sequence from the time of Investigational Product (CPI-613®) administration. The toxicity cannot be reasonably explained by other factors such as the subjects clinical state or concurrent medical condition, or concurrent medication(s).
Possibly Related—A clinical event follows a reasonable temporal sequence from the time of active Investigational Product (CPI-613®) administration, but could also have been produced by other factors such as the subjects clinical state, or concurrent medical condition, or concurrent medication(s).

Take `O=C(O)CCCCC(CCSCc1ccccc1)SCc1ccccc1` (stereo not shown) [devimistat, 6,8-bis-benzylthio-octanoic acid]: the local inflammation result in series [1] is given as “significant local inflammation”. Besides, the “leaching of DEHP” value in series [2] was “can cause leaching of DEHP from IV infusion sets and IV bags”. Besides, in series [3], the acute toxicity result is “potential to induce acute toxicity”. Moreover, the “adverse events probably related” value in series [4] is listed as “Nausea, Vomiting, Diarrhea, Increased creatinine, Neutropenia, Hyperkalemia, Hypoalbuminemia, Hypophosphatemia, Hyponatremia, Fatigue, Platelet count decreased, Renal failure (reversible), Glomerular filtration rate (decreased), Hemoglobin (anemia)”.
